# Reference: ChEMBL document CHEMBL4014321, “Discovery of Pyrazolo[1,5-a]pyrimidine B-Cell Lymphoma 6 (BCL6) Binders and Optimization to High Affinity Macrocyclic Inhibitors” (J Med Chem, 2017)
# Test system: TMD8
# Assay: Antiproliferative activity against BCL6 dependent human TMD8 cells after 3 days by CellTiter-Glo assay
# Type: functional
# Settings: TMD8, 72 h
row,SMILES,GI50
1,N#Cc1cnn2c3cc(nc12)N1CC[C@@H](C1)OCCCCOc1cc(cc2c1NC(=O)CC2)N3,5.01 µM
2,Cc1ccc(CN2C(=O)CCc3cc4cc(c32)OC/C=C/CO[C@H]2C[C@@H](CO)N(C2)c2cc(n3ncc(Cl)c3n2)N4)cc1,15.8 µM
3,O=C1CCc2cc3cc(c2N1)OC/C=C/CO[C@H]1C[C@@H](CO)N(C1)c1cc(n2ncc(Cl)c2n1)N3,2.51 µM

# Test system: OCI-Ly1
# Assay: Antiproliferative activity against BCL6 dependent human OCI-LY1 cells after 3 days by CellTiter-Glo assay
# Type: functional
# Settings: OCI-Ly1, 72 h
row,SMILES,GI50
1,N#Cc1cnn2c3cc(nc12)N1CC[C@@H](C1)OCCCCOc1cc(cc2c1NC(=O)CC2)N3,7.94 µM
2,Cc1ccc(CN2C(=O)CCc3cc4cc(c32)OC/C=C/CO[C@H]2C[C@@H](CO)N(C2)c2cc(n3ncc(Cl)c3n2)N4)cc1,7.94 µM
3,O=C1CCc2cc3cc(c2N1)OC/C=C/CO[C@H]1C[C@@H](CO)N(C1)c1cc(n2ncc(Cl)c2n1)N3,3.98 µM

# Test system: KARPAS-422
# Assay: Antiproliferative activity against BCL6 […] human KARPAS422 cells after 3 days by CellTiter-Glo assay
# Type: functional
# Settings: KARPAS-422, 72 h
row,SMILES,GI50
1,N#Cc1cnn2c3cc(nc12)N1CC[C@@H](C1)OCCCCOc1cc(cc2c1NC(=O)CC2)N3,7.94 µM
2,Cc1ccc(CN2C(=O)CCc3cc4cc(c32)OC/C=C/CO[C@H]2C[C@@H](CO)N(C2)c2cc(n3ncc(Cl)c3n2)N4)cc1,> 31.6 µM
3,O=C1CCc2cc3cc(c2N1)OC/C=C/CO[C@H]1C[C@@H](CO)N(C1)c1cc(n2ncc(Cl)c2n1)N3,5.01 µM

# Test system: U2932
# Assay: Antiproliferative activity against BCL6 dependent human U2932 cells after 3 days by CellTiter-Glo assay
# Type: functional
# Settings: U2932, 72 h
row,SMILES,GI50
1,N#Cc1cnn2c3cc(nc12)N1CC[C@@H](C1)OCCCCOc1cc(cc2c1NC(=O)CC2)N3,10 µM
2,Cc1ccc(CN2C(=O)CCc3cc4cc(c32)OC/C=C/CO[C@H]2C[C@@H](CO)N(C2)c2cc(n3ncc(Cl)c3n2)N4)cc1,10 µM
3,O=C1CCc2cc3cc(c2N1)OC/C=C/CO[C@H]1C[C@@H](CO)N(C1)c1cc(n2ncc(Cl)c2n1)N3,2.51 µM

# Test system: not listed separately
# Assay: Apparent permeability in human Caco2 cells
# Type: ADME, cell-based
# Settings: Caco-2
row,SMILES,Papp
1,O=C1CCc2cc3cc(c2N1)OC/C=C/CO[C@H]1C[C@@H](CO)N(C1)c1cc(n2ncc(Cl)c2n1)N3,46 ×10⁻⁶ cm/s

# Test system: OCI-LY19
# Assay: Antiproliferative activity against BCL6 independent human OCI-LY19 cells after 3 days by CellTiter-Glo assay
# Type: functional
# Settings: OCI-LY19, 72 h
row,SMILES,GI50
1,N#Cc1cnn2c3cc(nc12)N1CC[C@@H](C1)OCCCCOc1cc(cc2c1NC(=O)CC2)N3,7.94 µM
2,Cc1ccc(CN2C(=O)CCc3cc4cc(c32)OC/C=C/CO[C@H]2C[C@@H](CO)N(C2)c2cc(n3ncc(Cl)c3n2)N4)cc1,10 µM
3,O=C1CCc2cc3cc(c2N1)OC/C=C/CO[C@H]1C[C@@H](CO)N(C1)c1cc(n2ncc(Cl)c2n1)N3,2 µM

# Test system: OCI-Ly10
# Assay: Antiproliferative activity against BCL6 dependent human OCI-LY10 cells after 3 days by CellTiter-Glo assay
# Type: functional
# Settings: OCI-Ly10, 72 h
row,SMILES,GI50
1,N#Cc1cnn2c3cc(nc12)N1CC[C@@H](C1)OCCCCOc1cc(cc2c1NC(=O)CC2)N3,7.94 µM
2,Cc1ccc(CN2C(=O)CCc3cc4cc(c32)OC/C=C/CO[C@H]2C[C@@H](CO)N(C2)c2cc(n3ncc(Cl)c3n2)N4)cc1,12.6 µM
3,O=C1CCc2cc3cc(c2N1)OC/C=C/CO[C@H]1C[C@@H](CO)N(C1)c1cc(n2ncc(Cl)c2n1)N3,1.58 µM

# Test system: not listed separately
# Assay: Aqueous solubility of the compound at pH 7.4 after 24 hrs by LC-UV method
# Type: physicochemical
# Settings: not given
row,SMILES,solubility at 24 h
1,O=C1CCc2cc3cc(c2N1)OC/C=C/CO[C@H]1C[C@@H](CO)N(C1)c1cc(n2ncc(Cl)c2n1)N3,31 µM

# Test system: OCI-Ly3
# Assay: Antiproliferative activity against BCL6 dependent human OCI-LY3 cells after 3 days by CellTiter-Glo assay
# Type: functional
# Settings: OCI-Ly3, 72 h
row,SMILES,GI50
1,N#Cc1cnn2c3cc(nc12)N1CC[C@@H](C1)OCCCCOc1cc(cc2c1NC(=O)CC2)N3,3.98 µM
2,Cc1ccc(CN2C(=O)CCc3cc4cc(c32)OC/C=C/CO[C@H]2C[C@@H](CO)N(C2)c2cc(n3ncc(Cl)c3n2)N4)cc1,15.8 µM
3,O=C1CCc2cc3cc(c2N1)OC/C=C/CO[C@H]1C[C@@H](CO)N(C1)c1cc(n2ncc(Cl)c2n1)N3,2 µM

# Test system: SUD4
# Assay: Antiproliferative activity against BCL6 dependent human SUDHL4 cells after 3 days by CellTiter-Glo assay
# Type: functional
# Settings: SU-DHL-4, 72 h
row,SMILES,GI50
1,N#Cc1cnn2c3cc(nc12)N1CC[C@@H](C1)OCCCCOc1cc(cc2c1NC(=O)CC2)N3,10 µM
2,Cc1ccc(CN2C(=O)CCc3cc4cc(c32)OC/C=C/CO[C@H]2C[C@@H](CO)N(C2)c2cc(n3ncc(Cl)c3n2)N4)cc1,20 µM
3,O=C1CCc2cc3cc(c2N1)OC/C=C/CO[C@H]1C[C@@H](CO)N(C1)c1cc(n2ncc(Cl)c2n1)N3,6.31 µM

# Test system: AMO1
# Assay: Antiproliferative activity against BCL6 dependent human AMO1 cells after 3 days by CellTiter-Glo assay
# Type: functional
# Settings: AMO1, 72 h
row,SMILES,GI50
1,N#Cc1cnn2c3cc(nc12)N1CC[C@@H](C1)OCCCCOc1cc(cc2c1NC(=O)CC2)N3,10 µM
2,Cc1ccc(CN2C(=O)CCc3cc4cc(c32)OC/C=C/CO[C@H]2C[C@@H](CO)N(C2)c2cc(n3ncc(Cl)c3n2)N4)cc1,20 µM
3,O=C1CCc2cc3cc(c2N1)OC/C=C/CO[C@H]1C[C@@H](CO)N(C1)c1cc(n2ncc(Cl)c2n1)N3,3.16 µM

# Test system: not listed separately
# Assay: Inhibition of human CK2 protein
# Settings: not given
row,SMILES,IC50
1,Cc1ccc(CN2C(=O)CCc3cc4cc(c32)OC/C=C/CO[C@H]2C[C@@H](CO)N(C2)c2cc(n3ncc(Cl)c3n2)N4)cc1,> 10 µM
2,O=C1CCc2cc3cc(c2N1)OC/C=C/CO[C@H]1C[C@@H](CO)N(C1)c1cc(n2ncc(Cl)c2n1)N3,7.3 µM

# Test system: SU-DHL-2
# Assay: Antiproliferative activity against BCL6 dependent human SU-DHL-2 cells after 3 days by CellTiter-Glo assay
# Type: functional
# Settings: SU-DHL-2, 72 h
row,SMILES,GI50
1,N#Cc1cnn2c3cc(nc12)N1CC[C@@H](C1)OCCCCOc1cc(cc2c1NC(=O)CC2)N3,10 µM
2,Cc1ccc(CN2C(=O)CCc3cc4cc(c32)OC/C=C/CO[C@H]2C[C@@H](CO)N(C2)c2cc(n3ncc(Cl)c3n2)N4)cc1,6.31 µM
3,O=C1CCc2cc3cc(c2N1)OC/C=C/CO[C@H]1C[C@@H](CO)N(C1)c1cc(n2ncc(Cl)c2n1)N3,3.98 µM
